Experimental data: ChEMBL document CHEMBL3137667, “[Drug-induced liver injury; fourteenth updated edition of the bibliographic database of liver injuries and related drugs]” (Gastroenterol Clin Biol, 2004)

How the values were obtained:
[1] = human
[2] = human; remark: listed apart in the source
[3] = human; remark: listed apart in the source
[4] = Highest frequency of moderate liver toxicity observed during clinical trials, expressed as a percentage. [column '% BIOL' in source]; settings: human
[5] = human, serum, 4383 h
[6] = Times to onset, minimal and maximal, observed in the indexed observations. [column 'DELAI' in source]; settings: human
[7] = human; remark: listed apart in the source
[8] = human; remark: listed apart in the source
[9] = human; remark: listed apart in the source
[10] = Highest frequency of acute liver toxicity observed during clinical trials, expressed as a percentage. [column '% AIGUE' in source]; settings: human
[11] = Comments (NB not yet translated). [column 'COMMENTAIRES' in source]; settings: human
[12] = human; remark: listed apart in the source
[13] = human, serum
[14] = human, serum; remark: listed apart in the source
[15] = human; remark: listed apart in the source
[16] = human; remark: listed apart in the source
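Wherever Hepatotoxicity (association with vascular disease) is given: count of indexed literature references reporting vascular liver injury in humans, e.g. peliosis hepatitis, hepatic veno-occlusive disease or Budd-Chiari syndrome.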
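Wherever Hepatotoxicity (benign tumour) is given: value is a count of indexed literature references citing a benign tumour confirmed by histopathology.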
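Wherever Hepatotoxicity (choleostasis) is given: human cholestatic liver injury, shown by histopathology or by peak ALT or AST elevation over alkaline phosphatase ratio below 2, value counts indexed literature reports.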
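Wherever Hepatotoxicity (chronic liver disease) is given: chronic liver injury confirmed by histopathology or persistently raised serum aminotransferase activity beyond 6 months, value given as the count of indexed literature references.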
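Wherever Hepatotoxicity (cirrhosis) is given: value is a count of indexed literature references reporting cirrhosis confirmed by histopathology.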
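Wherever Hepatotoxicity (cytolytic) is given: human cytolytic liver injury, shown by histopathology or by a ratio above 5 of peak ALT or AST elevation to alkaline phosphatase elevation, value counts indexed references.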
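Wherever Hepatotoxicity (granulomatous hepatitis) is given: value is a count of indexed literature references reporting granulomatous liver disease confirmed by histopathology.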
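Wherever Hepatotoxicity (malignant tumour) is given: malignant tumour confirmed by histopathology, value gives the count of indexed literature references reporting it.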
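Wherever Hepatotoxicity (severe hepatitis) is given: human clinical data: severe hepatitis, meaning potentially life-threatening liver failure or clinically observed cases, the value counts how many indexed literature references report it.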
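Wherever Hepatotoxicity (steatosis) is given: steatosis confirmed by histopathology, value is the count of indexed references.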

Row | Compound | Hepatotoxicity (benign tumour) [1] | Hepatotoxicity (malignant tumour) [2] | Hepatotoxicity (association with vascular disease) [3] | Hepatotoxicity (moderate) [4] [%] | Hepatotoxicity (chronic liver disease) [5] | Hepatotoxicity (time to onset) [6] | Hepatotoxicity (granulomatous hepatitis) [7] | Hepatotoxicity (cirrhosis) [8] | Hepatotoxicity (steatosis) [9] | Hepatotoxicity (acute) [10] [%] | Hepatotoxicity (comment) [11] | Hepatotoxicity (cytolytic) [12] | Hepatotoxicity (moderate) [13] | Hepatotoxicity (acute) [14] | Hepatotoxicity (choleostasis) [15] | Hepatotoxicity (severe hepatitis) [16]
1 | ANISTREPLASE | 0 | 0 | 0 | 0 | 0 | 6 days | 0 | 0 | 0 | 0 | HEMATOME_SOUS_CAPSULAIRE | 1 | 0 | 1 | 0 | 0
2 | C[C@]1(O)CC[C@H]2[C@@H]3CCC4=CC(=O)CC[C@]4(C)[C@@]3(F)[C@@H](O)C[C@@]21C [FLUOXYMESTERONE] | 1 | 3 | 6 | 7.1 | 0 | 6 months - 13 years | 0 | 0 | 0 | 0 | ANGIOSARCOME PELIOSE | 0 | 2 | 2 | 2 | 0
3 | CC(C(=O)O)c1cccc(Oc2ccccc2)c1 (stereo not given) [FENOPROFEN] | 0 | 0 | 0 | 7 | 0 | 1 week - 7 weeks | 0 | 0 | 0 | 0 | RC/NAPROXENE | 2 | 1 | 3 | 1 | 0
4 | CCc1ccc(CCOc2ccc(CC3SC(=O)NC3=O)cc2)nc1 (stereo not given) [PIOGLITAZONE] | 0 | 0 | 0 | 0.4 | 0 | 23 days - 7 months | 0 | 0 | 0 | 0 | CHOLESTASE_PROLONGEE PERICHOLANGIOLITE CHOLANGIOLITE | 3 | 3 | 5 | 3 | 1
5 | CN1CCN(CCCN2c3ccccc3Sc3ccc(Cl)cc32)CC1 [PROCHLORPERAZINE] | 0 | 0 | 0 | 0 | 3 | 1 week - 4 months | 0 | 0 | 0 | 0 | I/IPRONIAZIDE CHOLESTASE_PROLONGEE DUCTOPENIE | 3 | 0 | 9 | 6 | 3
6 | Cc1nc2n(c(=O)c1CCN1CCC(c3noc4cc(F)ccc34)CC1)CCCC2 [RISPERIDONE] | 0 | 0 | 0 | 6 | 0 | 2 days - 1 year | 0 | 0 | 4 | 4 | PERICHOLANGITE HYPERBILIRUBINEMIE | 5 | 4 | 6 | 2 | 0
7 | C[C@]12Cc3c[nH]nc3C[C@@H]1CC[C@@H]1[C@@H]2CC[C@@]2(C)[C@H]1CC[C@]2(C)O [STANOZOLOL] | 3 | 2 | 0 | 26.1 | 0 | 1 month - 20 years | 0 | 0 | 0 | 0 | ANGIOSARCOME HNF | 2 | 6 | 6 | 4 | 1
8 | c1ccc(C2(c3ccccc3)CC2C2=NCCN2)cc1 (stereo not given) [CIFENLINE] | 0 | 0 | 0 | 4.1 | 0 | 47 days - 5.5 months | 0 | 0 | 0 | 0 | CHOLANGITE | 2 | 2 | 2 | 0 | 0
9 | C[C@]12CC[C@@H]3c4ccc(OS(=O)(=O)O)cc4CC[C@H]3[C@@H]1CCC2=O [ESTRONE SULFURIC ACID] | 1 | 0 | 0 | 22.9 | 0 | 3 months - 1 year | 0 | 0 | 0 | 0 | HNF | 0 | 5 | 1 | 1 | 0
10 | NS(=O)(=O)c1cc2c(cc1Cl)N=CNS2(=O)=O [CHLOROTHIAZIDE] | 0 | 0 | 0 | 0 | 0 | 2 weeks - 2 years | 0 | 1 | 0 | 0 | #CBP | 0 | 0 | 5 | 5 | 1
